Experimental data published in ChEMBL document CHEMBL3880411, “Multikinase inhibitors for use in the treatment of cancer” (2009).
Active and inactive are the calls of the source. The calls are words filed in the database; no cut-off is given here.

Columns and labels:
[1] = target: Tyrosine-protein kinase Lck (Homo sapiens) (UniProt P06239); experiment: Inhibition of human Lck assessed as remaining activity at 1 uM after 40 mins in presence of [gamma33P-ATP] by scintillation counting
[2] = target: Tyrosine-protein kinase Lck (Homo sapiens) (UniProt P06239); experiment: Inhibition of human Lck assessed as remaining activity at 0.1 uM after 40 mins in presence of [gamma33P-ATP] by scintillation counting
[3] = target: Tyrosine-protein kinase ABL1 (Homo sapiens) (UniProt P00519); experiment: Inhibition of human Abl assessed as remaining activity at 1 uM after 40 mins in presence of [gamma33P-ATP] by scintillation counting
Chain of Tyrosine-protein kinase ABL1 (Homo sapiens) (P00519 whole entry): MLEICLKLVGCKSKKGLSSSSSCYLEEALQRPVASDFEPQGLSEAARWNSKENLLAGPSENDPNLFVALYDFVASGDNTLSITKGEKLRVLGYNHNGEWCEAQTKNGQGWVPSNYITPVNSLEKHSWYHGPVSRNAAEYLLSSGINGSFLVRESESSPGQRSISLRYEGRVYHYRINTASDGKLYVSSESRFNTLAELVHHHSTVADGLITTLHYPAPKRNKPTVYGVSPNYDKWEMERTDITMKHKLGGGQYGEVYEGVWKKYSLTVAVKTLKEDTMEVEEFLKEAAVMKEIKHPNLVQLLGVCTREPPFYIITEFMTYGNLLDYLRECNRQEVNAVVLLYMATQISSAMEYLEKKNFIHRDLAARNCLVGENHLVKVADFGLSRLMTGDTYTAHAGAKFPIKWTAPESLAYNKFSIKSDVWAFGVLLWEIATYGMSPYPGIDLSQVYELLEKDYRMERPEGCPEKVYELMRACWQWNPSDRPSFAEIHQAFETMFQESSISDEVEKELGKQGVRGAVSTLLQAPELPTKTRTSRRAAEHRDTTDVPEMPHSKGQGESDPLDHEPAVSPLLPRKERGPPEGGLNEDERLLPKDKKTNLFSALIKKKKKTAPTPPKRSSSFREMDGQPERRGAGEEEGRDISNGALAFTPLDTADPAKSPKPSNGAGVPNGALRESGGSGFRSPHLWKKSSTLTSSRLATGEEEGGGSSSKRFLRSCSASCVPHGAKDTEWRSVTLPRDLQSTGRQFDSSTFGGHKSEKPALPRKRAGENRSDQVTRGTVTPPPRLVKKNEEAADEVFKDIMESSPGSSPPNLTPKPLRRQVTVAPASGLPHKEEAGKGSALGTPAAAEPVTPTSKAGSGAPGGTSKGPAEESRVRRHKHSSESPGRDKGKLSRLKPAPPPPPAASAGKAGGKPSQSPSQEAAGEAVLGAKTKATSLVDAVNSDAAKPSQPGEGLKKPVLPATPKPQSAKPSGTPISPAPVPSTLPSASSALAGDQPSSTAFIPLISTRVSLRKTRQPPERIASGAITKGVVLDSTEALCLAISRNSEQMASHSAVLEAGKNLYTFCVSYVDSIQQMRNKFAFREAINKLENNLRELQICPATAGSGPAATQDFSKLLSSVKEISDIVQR

[4] = Cytotoxicity against human LoVo cells expressing K-ras G13D mutant assessed as reduction in cell viability after 96 hrs by CellTiter-Glo luminescence assay or methylene blue assay; type: functional, cell-based
[5] = Antiproliferative activity against human THP1 cells after 96 hrs by MTT assay; type: functional, cell-based; conditions: THP-1, 96 h
[6] = target: T1, Dual specificity mitogen-activated protein kinase kinase 1 (Homo sapiens, UniProt Q02750); experiment: Inhibition of human MEK1 assessed as remaining activity at 0.1 uM after 40 mins in presence of [gamma33P-ATP] by scintillation counting
T1 sequence (Q02750 whole entry): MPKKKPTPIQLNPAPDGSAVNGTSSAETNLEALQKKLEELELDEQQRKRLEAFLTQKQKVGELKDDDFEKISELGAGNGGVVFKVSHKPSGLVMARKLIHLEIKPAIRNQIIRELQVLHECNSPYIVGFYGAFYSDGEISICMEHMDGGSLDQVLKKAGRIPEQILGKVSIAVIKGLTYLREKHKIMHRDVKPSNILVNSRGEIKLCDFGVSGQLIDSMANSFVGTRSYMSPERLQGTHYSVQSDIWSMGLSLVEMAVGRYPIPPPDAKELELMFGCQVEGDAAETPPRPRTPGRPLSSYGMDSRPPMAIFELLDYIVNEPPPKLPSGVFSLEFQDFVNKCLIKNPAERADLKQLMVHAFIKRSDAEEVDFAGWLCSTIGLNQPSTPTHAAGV

[7] = Cytotoxicity against human AU565 cells assessed as reduction in cell viability after 96 hrs by CellTiter-Glo luminescence assay or methylene blue assay; type: functional, cell-based; conditions: AU565, 96 h
[8] = Antiproliferative activity against human HL60 cells after 96 hrs by MTT assay; type: functional, cell-based; conditions: HL-60, 96 h
[9] = (§1) Antitumor activity against human LOX cells expressing B-RAF V600E mutant xenografted in athymic mouse assessed as tumor regression at 10 mg/kg, iv administered for two weekly rounds of five injections daily with two-day rest period between the rounds measured twice weekly from first day of treatment for 3 weeks; type: functional
[10] = Cytotoxicity against human SK-MEL-31 cells expressing B-RAF V600E mutant assessed as reduction in cell viability after 96 hrs by CellTiter-Glo luminescence assay or methylene blue assay; type: functional, cell-based
[11] = Cytotoxicity against human MDA-MB-435 cells expressing B-RAF V600E mutant assessed as reduction in cell viability after 96 hrs by CellTiter-Glo luminescence assay or methylene blue assay; type: functional, cell-based; conditions: MDA-MB-435, 96 h
[12] = Cytotoxicity against human MES-SA cells assessed as reduction in cell viability after 96 hrs by CellTiter-Glo luminescence assay or methylene blue assay; type: functional, cell-based
[13] = Cytotoxicity against human HT-29 cells expressing B-RAF V600E mutant assessed as reduction in cell viability after 96 hrs by CellTiter-Glo luminescence assay or methylene blue assay; type: functional, cell-based; conditions: HT-29, 96 h
[14] = target: T1, Dual specificity mitogen-activated protein kinase kinase 1; experiment: Competitive inhibition of MEK1 (unknown origin) using ERK2 as substrate after 40 mins by ELISA
[15] = Antiproliferative activity against human K562 cells after 96 hrs by MTT assay; type: functional, cell-based; conditions: K562, 96 h
[16] = target: Nuclear factor NF-kappa-B complex (Homo sapiens) (UniProt Q00653+P19838+Q04206); experiment: Inhibition of NFkappaB (unknown origin); type: protein-complex assay
Chain of Nuclear factor NF-kappa-B complex (Homo sapiens) (P19838 whole entry, looked up): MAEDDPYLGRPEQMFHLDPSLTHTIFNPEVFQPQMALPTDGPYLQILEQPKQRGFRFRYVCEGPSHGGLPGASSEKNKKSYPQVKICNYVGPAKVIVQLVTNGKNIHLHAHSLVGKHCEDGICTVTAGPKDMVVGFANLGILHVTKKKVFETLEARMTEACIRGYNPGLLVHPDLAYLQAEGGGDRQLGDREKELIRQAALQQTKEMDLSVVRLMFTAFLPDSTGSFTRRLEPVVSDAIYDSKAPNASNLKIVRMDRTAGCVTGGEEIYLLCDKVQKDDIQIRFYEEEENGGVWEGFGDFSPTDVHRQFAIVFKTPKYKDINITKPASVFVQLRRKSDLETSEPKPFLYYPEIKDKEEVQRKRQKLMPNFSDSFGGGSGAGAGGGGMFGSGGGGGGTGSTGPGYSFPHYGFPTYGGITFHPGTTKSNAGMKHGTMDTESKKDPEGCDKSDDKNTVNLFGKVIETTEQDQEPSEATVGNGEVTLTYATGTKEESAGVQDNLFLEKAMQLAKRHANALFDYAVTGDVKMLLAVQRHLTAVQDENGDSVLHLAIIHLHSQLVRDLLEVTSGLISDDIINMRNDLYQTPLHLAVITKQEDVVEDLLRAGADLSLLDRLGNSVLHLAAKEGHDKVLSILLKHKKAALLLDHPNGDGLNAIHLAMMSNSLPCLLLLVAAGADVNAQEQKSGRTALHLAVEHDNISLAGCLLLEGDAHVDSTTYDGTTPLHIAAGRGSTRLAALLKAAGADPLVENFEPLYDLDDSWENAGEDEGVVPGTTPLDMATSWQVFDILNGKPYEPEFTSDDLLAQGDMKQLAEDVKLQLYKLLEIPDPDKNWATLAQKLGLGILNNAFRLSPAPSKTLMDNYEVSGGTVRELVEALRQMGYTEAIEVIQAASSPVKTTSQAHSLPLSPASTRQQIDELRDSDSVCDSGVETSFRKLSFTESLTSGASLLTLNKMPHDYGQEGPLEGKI
Chain of Nuclear factor NF-kappa-B complex (Homo sapiens) (Q00653 whole entry, looked up): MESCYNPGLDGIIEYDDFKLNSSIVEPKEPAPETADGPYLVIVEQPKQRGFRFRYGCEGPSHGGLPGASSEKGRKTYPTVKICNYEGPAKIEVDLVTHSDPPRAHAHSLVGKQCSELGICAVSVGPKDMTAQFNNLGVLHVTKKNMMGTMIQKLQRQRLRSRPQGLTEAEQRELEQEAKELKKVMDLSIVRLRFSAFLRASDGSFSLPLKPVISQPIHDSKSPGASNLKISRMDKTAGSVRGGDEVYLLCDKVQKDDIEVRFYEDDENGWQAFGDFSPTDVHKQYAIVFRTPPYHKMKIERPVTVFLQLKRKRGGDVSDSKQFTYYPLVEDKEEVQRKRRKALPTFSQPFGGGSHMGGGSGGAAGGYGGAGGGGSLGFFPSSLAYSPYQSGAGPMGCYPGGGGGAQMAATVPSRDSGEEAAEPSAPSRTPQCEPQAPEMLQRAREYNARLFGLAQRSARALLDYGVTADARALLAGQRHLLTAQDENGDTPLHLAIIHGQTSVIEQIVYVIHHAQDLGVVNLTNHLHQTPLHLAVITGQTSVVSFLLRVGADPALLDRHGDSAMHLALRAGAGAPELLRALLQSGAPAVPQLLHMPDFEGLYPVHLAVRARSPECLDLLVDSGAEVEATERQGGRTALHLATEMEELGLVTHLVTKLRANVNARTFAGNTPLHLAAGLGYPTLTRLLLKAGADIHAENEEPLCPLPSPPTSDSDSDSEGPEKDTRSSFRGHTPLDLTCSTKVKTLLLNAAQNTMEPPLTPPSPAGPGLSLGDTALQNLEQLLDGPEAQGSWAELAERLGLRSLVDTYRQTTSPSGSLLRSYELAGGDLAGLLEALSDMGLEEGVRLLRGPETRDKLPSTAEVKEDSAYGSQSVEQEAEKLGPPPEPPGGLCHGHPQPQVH
Chain of Nuclear factor NF-kappa-B complex (Homo sapiens) (Q04206 whole entry, looked up): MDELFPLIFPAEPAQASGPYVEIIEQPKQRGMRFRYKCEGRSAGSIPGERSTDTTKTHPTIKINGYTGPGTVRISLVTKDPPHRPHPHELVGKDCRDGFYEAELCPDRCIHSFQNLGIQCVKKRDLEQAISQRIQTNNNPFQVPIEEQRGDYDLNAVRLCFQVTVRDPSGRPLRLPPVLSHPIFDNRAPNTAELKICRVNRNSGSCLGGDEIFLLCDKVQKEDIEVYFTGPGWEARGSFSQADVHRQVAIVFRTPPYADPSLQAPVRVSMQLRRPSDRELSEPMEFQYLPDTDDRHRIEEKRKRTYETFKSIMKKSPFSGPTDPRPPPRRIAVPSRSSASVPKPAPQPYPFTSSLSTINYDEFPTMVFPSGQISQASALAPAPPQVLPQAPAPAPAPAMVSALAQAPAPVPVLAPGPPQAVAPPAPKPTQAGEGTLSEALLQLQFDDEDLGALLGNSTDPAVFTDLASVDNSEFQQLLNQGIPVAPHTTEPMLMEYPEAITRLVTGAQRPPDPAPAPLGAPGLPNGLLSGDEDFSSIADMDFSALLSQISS

[17] = Cytotoxicity against human IMR90 cells assessed as reduction in cell viability after 96 hrs by CellTiter-Glo luminescence assay or methylene blue assay; type: functional, cell-based; conditions: IMR-90, 96 h
[18] = Cytotoxicity against human MCF7 cells assessed as reduction in cell viability after 96 hrs by CellTiter-Glo luminescence assay or methylene blue assay; type: functional, cell-based; conditions: MCF7, 96 h
[19] = target: Tyrosine-protein kinase ABL1 (Homo sapiens) (UniProt P00519); experiment: Inhibition of human Abl assessed as remaining activity at 0.1 uM after 40 mins in presence of [gamma33P-ATP] by scintillation counting
[20] = target: Tyrosine-protein kinase Yes (Homo sapiens) (UniProt P07947); experiment: Inhibition of human Yes assessed as remaining activity at 0.1 uM after 40 mins in presence of [gamma33P-ATP] by scintillation counting
Chain of Tyrosine-protein kinase Yes (Homo sapiens) (P07947 2-543 limits assumed): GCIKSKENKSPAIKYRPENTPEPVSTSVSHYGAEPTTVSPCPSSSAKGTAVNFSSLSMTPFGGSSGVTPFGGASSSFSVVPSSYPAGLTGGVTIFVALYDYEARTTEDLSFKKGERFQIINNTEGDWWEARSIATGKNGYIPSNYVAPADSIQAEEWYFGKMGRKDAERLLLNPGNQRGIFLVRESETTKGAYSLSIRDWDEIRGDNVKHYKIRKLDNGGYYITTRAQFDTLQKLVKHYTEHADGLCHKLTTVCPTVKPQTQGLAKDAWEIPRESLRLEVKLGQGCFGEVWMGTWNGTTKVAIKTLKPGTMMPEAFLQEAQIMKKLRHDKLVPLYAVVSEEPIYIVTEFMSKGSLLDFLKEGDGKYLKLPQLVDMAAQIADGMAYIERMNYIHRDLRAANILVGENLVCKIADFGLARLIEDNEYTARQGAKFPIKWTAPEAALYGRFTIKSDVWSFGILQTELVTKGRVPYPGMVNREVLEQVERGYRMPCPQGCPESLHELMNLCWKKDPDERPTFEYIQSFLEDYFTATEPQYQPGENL

[21] = Cytotoxicity against human COLO205 cells expressing B-RAF V600E mutant assessed as reduction in cell viability after 96 hrs by CellTiter-Glo luminescence assay or methylene blue assay; type: functional, cell-based; conditions: COLO 205, 96 h
[22] = Cytotoxicity against human MES-SA/Dx5-Rx1 cells assessed as reduction in cell viability after 96 hrs by CellTiter-Glo luminescence assay or methylene blue assay; type: functional, cell-based
[23] = Cytotoxicity against human SK-MEL-24 cells expressing B-RAF V600E mutant assessed as reduction in cell viability after 96 hrs by CellTiter-Glo luminescence assay or methylene blue assay; type: functional, cell-based; conditions: SK-MEL-24, 96 h
[24] = Cytotoxicity against human SK-MEL-2 cells expressing N-ras Q61R mutant assessed as reduction in cell viability after 96 hrs by CellTiter-Glo luminescence assay or methylene blue assay; type: functional, cell-based; conditions: SK-MEL-2, 96 h
[25] = Antiproliferative activity against human RPMI8226 cells after 96 hrs by MTT assay; type: functional, cell-based; conditions: RPMI-8226, 96 h
[26] = Antiproliferative activity against human U266 cells after 96 hrs by MTT assay; type: functional, cell-based; conditions: U-266, 96 h
[27] = Cytotoxicity against human MDA-MB-231 cells expressing K-ras G13D mutant assessed as reduction in cell viability after 96 hrs by CellTiter-Glo luminescence assay or methylene blue assay; type: functional, cell-based; conditions: MDA-MB-231, 96 h
[28] = Antiproliferative activity against human RL cells after 96 hrs by MTT assay; type: functional, cell-based
[29] = as §1, with “20 to 40” for “10”, “treatment” for “treatment for 3 weeks”; type: functional
[30] = Cytotoxicity against human BxPC3 cells assessed as reduction in cell viability after 96 hrs by CellTiter-Glo luminescence assay or methylene blue assay; type: functional, cell-based; conditions: BXPC-3, 96 h
LOX = experiment: Antitumor activity against human LOX cells expressing B-RAF V600E mutant xenografted in athymic mouse assessed as tumor regression at 10 to 40 mg/kg, iv administered for two weekly rounds of five injections daily with two-day rest period between the rounds measured at end of study; type: functional, organism-based
[31] = Cytotoxicity against human PANC1 cells expressing K-ras G12D mutant assessed as reduction in cell viability after 96 hrs by CellTiter-Glo luminescence assay or methylene blue assay; type: functional, cell-based; conditions: PANC-1, 96 h
[32] = Cytotoxicity against human MIAPaCa2 cells expressing K-ras G12C mutant assessed as reduction in cell viability after 96 hrs by CellTiter-Glo luminescence assay or methylene blue assay; type: functional, cell-based; conditions: MIA PaCa-2, 96 h
[33] = Cytotoxicity against human HCT116 cells expressing K-ras G13D mutant assessed as reduction in cell viability after 96 hrs by CellTiter-Glo luminescence assay or methylene blue assay; type: functional, cell-based; conditions: HCT-116, 96 h
[34] = Cytotoxicity against human SK-MEL-3 cells expressing B-RAF V600E mutant assessed as reduction in cell viability after 96 hrs by CellTiter-Glo luminescence assay or methylene blue assay; type: functional, cell-based; conditions: SK-MEL3, 96 h
[35] = Cytotoxicity against human DU4475 cells expressing B-RAF V600E mutant assessed as reduction in cell viability after 96 hrs by CellTiter-Glo luminescence assay or methylene blue assay; type: functional, cell-based; conditions: DU-4475, 96 h
[36] = Antiproliferative activity against human NALM6 cells after 96 hrs by MTT assay; type: functional, cell-based; conditions: NALM-6, 96 h
[37] = Cytotoxicity against human DLD1 cells expressing K-ras G13D mutant assessed as reduction in cell viability after 96 hrs by CellTiter-Glo luminescence assay or methylene blue assay; type: functional, cell-based; conditions: DLD-1, 96 h
[38] = Cytotoxicity against human SW620 cells expressing K-ras G12V mutant assessed as reduction in cell viability after 96 hrs by CellTiter-Glo luminescence assay or methylene blue assay; type: functional, cell-based; conditions: SW-620, 96 h
[39] = target: Tyrosine-protein kinase Yes (Homo sapiens) (UniProt P07947); experiment: Inhibition of human Yes assessed as remaining activity at 1 uM after 40 mins in presence of [gamma33P-ATP] by scintillation counting
[40] = target: T1, Dual specificity mitogen-activated protein kinase kinase 1; experiment: Inhibition of human MEK1 assessed as remaining activity at 1 uM after 40 mins in presence of [gamma33P-ATP] by scintillation counting

Chain of Tyrosine-protein kinase Lck (Homo sapiens) (P06239 2-509 limits assumed): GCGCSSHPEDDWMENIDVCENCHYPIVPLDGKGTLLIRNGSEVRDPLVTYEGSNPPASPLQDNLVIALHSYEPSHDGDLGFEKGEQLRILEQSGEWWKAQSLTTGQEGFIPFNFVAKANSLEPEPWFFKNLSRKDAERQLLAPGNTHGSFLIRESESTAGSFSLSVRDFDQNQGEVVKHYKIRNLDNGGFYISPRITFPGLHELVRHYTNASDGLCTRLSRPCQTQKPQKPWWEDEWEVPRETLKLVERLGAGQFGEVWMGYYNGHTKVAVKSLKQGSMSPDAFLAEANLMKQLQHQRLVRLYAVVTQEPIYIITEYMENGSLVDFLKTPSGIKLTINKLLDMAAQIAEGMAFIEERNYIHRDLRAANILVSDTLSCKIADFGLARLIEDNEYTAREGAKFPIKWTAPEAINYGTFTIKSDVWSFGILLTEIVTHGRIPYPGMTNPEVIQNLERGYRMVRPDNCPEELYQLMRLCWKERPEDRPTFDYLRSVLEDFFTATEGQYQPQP

Activity [1]: 3%
Activity [2]: 38%
Activity [3]: 22%
Activity [6]: 30%
inhibition [14]: Active
inhibition [16]: Active
Activity [19]: 69%
Activity [20]: 46%
Activity [39]: 7%
Activity [40]: 4%
Structure (SMILES): CNc1cc(O)c2c(c1)/C=C/C[C@H](O)[C@H](O)C(=O)/C=C\[C@@H](C)[C@H](C)OC2=O
IC50 [4]: 0.09 µM
IC50 [5]: 0.09 µM
IC50 [7]: > 10 µM
IC50 [8]: 0.05 µM
Activity [9]: 100%
IC50 [10]: 0.209 µM
IC50 [11]: 0.05 µM
IC50 [12]: 5.78 µM
IC50 [13]: 0.065 µM
IC50 [15]: 1.43 µM
IC50 [17]: > 10 µM
IC50 [18]: > 10 µM
IC50 [21]: 0.027 µM
IC50 [22]: 0.908 µM
IC50 [23]: 0.053 µM
IC50 [24]: 0.113 µM
IC50 [25]: > 4.83 µM
IC50 [26]: 1 µM
IC50 [27]: 0.119 µM
IC50 [28]: 1.62 µM
Activity [29]: 100%
IC50 [30]: 0.412 µM
Activity (LOX): Active
IC50 [31]: > 10 µM
IC50 [32]: 0.582 µM
IC50 [33]: 0.257 µM
IC50 [34]: 0.019 µM
IC50 [35]: 0.03 µM
IC50 [36]: 0.65 µM
IC50 [37]: 0.466 µM
IC50 [38]: 0.207 µM
